Results: PubChem BioAssay (NCI)
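Test compounds were applied to cells in 96-well plates for 48 hours at 5 doses. At the GI50, growth is halved. At the TGI there is no net growth.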

Experiments:
Experiment in all cases: inhibition of tumour cell growth, NCI panel, 48 h
DU-145 prostate = system: DU-145 prostate
HCT-15 colon = system: HCT-15 colon
HOP-92 NSCLC = system: HOP-92 NSCLC
MDA-MB-231 breast = system: MDA-MB-231 breast
NCI/ADR-RES ovarian = system: NCI/ADR-RES ovarian
SF-295 CNS = system: SF-295 CNS
SNB-75 CNS = system: SNB-75 CNS
T-47D breast = system: T-47D breast
UACC-257 melanoma = system: UACC-257 melanoma
HL-60(TB) leukemia = system: HL-60(TB) leukemia

SMILES | TGI (DU-145 prostate) | TGI (HCT-15 colon) | TGI (HOP-92 NSCLC) | TGI (MDA-MB-231 breast) | TGI (NCI/ADR-RES ovarian) | TGI (SF-295 CNS) | TGI (SNB-75 CNS) | TGI (T-47D breast) | TGI (UACC-257 melanoma) | GI50 (DU-145 prostate) | GI50 (HCT-15 colon) | GI50 (HL-60(TB) leukemia) | TGI (HL-60(TB) leukemia) | GI50 (HOP-92 NSCLC) | GI50 (MDA-MB-231 breast) | GI50 (NCI/ADR-RES ovarian) | GI50 (SF-295 CNS) | GI50 (T-47D breast) | GI50 (UACC-257 melanoma) | GI50 (SNB-75 CNS)
O=c1ccnc(SCc2ccc(Cl)cc2)[nH]1 | > 100 µM | > 100 µM | > 100 µM | > 100 µM | > 100 µM | > 100 µM | > 100 µM | > 100 µM | > 100 µM | – | – | – | – | – | – | – | – | – | – | –
c1ccc2c3c(ccc2c1)-c1c(ccc2c(NCCCCN4CCCCC4)cccc12)C3 | 3.33 µM | 3.79 µM | 7.73 µM | 2.21 µM | 2.96 µM | 3.35 µM | – | > 100 µM | 4.92 µM | 1.77 µM | 1.86 µM | 2.48 µM | 14.6 µM | 2.46 µM | 0.599 µM | 1.61 µM | 1.78 µM | 4.27 µM | 1.89 µM | –
CCCN1C(=O)CNC(=O)c2[nH]cnc21 | – | > 100 µM | > 100 µM | – | – | > 100 µM | > 100 µM | – | > 100 µM | – | – | – | > 100 µM | – | – | – | – | – | – | –
COc1ccc2c(c1)C(=O)c1c-2c(NCCN(C)C)nc2ccccc12 | 17.5 µM | 16.6 µM | 6.54 µM | 19.9 µM | 14.3 µM | 17.5 µM | – | 34.6 µM | 17.5 µM | 2.95 µM | 2.72 µM | – | – | 0.0658 µM | 6.59 µM | 3.66 µM | 3.83 µM | 14.8 µM | 4.6 µM | –
Nc1ncnc2c1ncn2C1OC(COC2C(CO)OC(OC(C(=O)O)C(O)C(OP(=O)(O)O)C(O)C(=O)O)C(O)C2O)C(O)C1O (configuration not stated) | – | > 100 µM | – | > 100 µM | – | > 100 µM | > 100 µM | – | > 100 µM | – | – | – | > 100 µM | – | – | – | – | – | – | –
O=NN(CCCl)C(=O)N[C@H]1CCCC[C@@H]1Cl | – | > 100 µM | > 100 µM | – | – | > 100 µM | > 100 µM | – | – | – | – | – | 42.7 µM | – | – | – | – | – | – | –
Cc1ccc(N2C(=O)C(Cl)=C(Cl)C2=O)cc1 | – | 33.3 µM | 32.4 µM | – | – | > 100 µM | 48.5 µM | – | 63.9 µM | – | – | – | – | – | – | – | – | – | – | –
COC(=O)Cc1cc(=O)n2c([nH]c3ccccc32)c1C#N | – | > 100 µM | – | – | – | > 100 µM | > 100 µM | – | > 100 µM | – | – | – | > 100 µM | – | – | – | – | – | – | –
COc1ccc2nc(-c3cc4c([nH]c5ccccc54)c(-c4ccc(F)c(F)c4)n3)[nH]c2c1 | 17.3 µM | 16.7 µM | 29.5 µM | 34 µM | 64.8 µM | – | 29.7 µM | 20 µM | 22 µM | 4.13 µM | 3.41 µM | 2.78 µM | 7.12 µM | 5.96 µM | 10.4 µM | 4.22 µM | – | 3.76 µM | 5.68 µM | 14.2 µM
Nc1ccccc1C#Cc1ccccc1C#Cc1cnccn1 | 28.1 µM | 34.6 µM | – | 29.3 µM | 37.4 µM | 24 µM | 84.8 µM | – | 79.9 µM | 14.5 µM | 16.6 µM | 21.5 µM | > 100 µM | – | 14.3 µM | 16.2 µM | 11.8 µM | – | 35.3 µM | 24.6 µM
Cc1c(CC/C(=N\Nc2ccc([N+](=O)[O-])cc2[N+](=O)[O-])c2ccccc2)c2ccccc2n1C | – | > 100 µM | > 100 µM | – | – | > 100 µM | > 100 µM | – | > 100 µM | – | – | – | > 81.2 µM | – | – | – | – | – | – | –
Cn1sc2ccccc2c1=S | – | 17.3 µM | 36.1 µM | – | 9.38 µM | 25.4 µM | 17.4 µM | – | 21.3 µM | – | – | – | 27.2 µM | – | – | – | – | – | – | –
COc1cc(Nc2nc3cc(C(F)(F)F)ccc3nc2C)cc(OC)c1OC | – | 12.2 µM | 0.95 µM | – | – | 4.91 µM | 39 µM | – | 21.4 µM | – | – | – | – | – | – | – | – | – | – | –
CCOCCOC[C@H]1CCCN(c2ccnc3sc(C(N)=O)c(N)c23)C1 | > 100 µM | > 100 µM | > 100 µM | > 100 µM | – | > 100 µM | > 100 µM | > 100 µM | > 100 µM | 73.1 µM | > 100 µM | 48.7 µM | > 100 µM | 44.3 µM | 58.7 µM | – | 10.4 µM | 3.9 µM | 12.4 µM | 63.9 µM
O=C(O)[C@@H](NS(=O)(=O)c1ccc([N+](=O)[O-])cc1)c1ccccc1 | – | > 100 µM | > 100 µM | – | – | > 100 µM | > 100 µM | – | > 100 µM | – | – | – | > 100 µM | – | – | – | – | – | – | –
O=C(Cc1ccccc1)NS(=O)(=O)c1ccccc1 | – | – | > 100 µM | – | – | > 100 µM | > 100 µM | – | > 100 µM | – | – | – | > 100 µM | – | – | – | – | – | – | –
c1ccc2c(CNCCCCCCCCCCCCNCc3cccc4ccccc34)cccc2c1 | – | 3.08 µM | 3.66 µM | – | – | 58.2 µM | 3.21 µM | – | 3.17 µM | – | – | – | 3.12 µM | – | – | – | – | – | – | –
COc1ccccc1NC(=O)C(CC(C(=O)Nc1ccccc1OC)/C(C)=N/NC(=O)c1ccccc1O)/C(C)=N/NC(=O)c1ccccc1O (configuration not stated) | – | – | > 100 µM | – | – | > 100 µM | > 100 µM | – | > 100 µM | – | – | – | > 100 µM | – | – | – | – | – | – | –
Cc1ccc(NC(=O)c2cc3ccccc3cc2O)c(C)c1.Cc1ccc(NC(=O)c2cc3ccccc3cc2[O-])c(C)c1.[Ni+2] | 13.2 µM | 17.2 µM | – | 5.27 µM | 8.6 µM | 14.3 µM | 6.7 µM | 14.8 µM | 7.85 µM | 3.27 µM | 3.24 µM | – | – | – | 2.33 µM | 2.45 µM | 3.89 µM | 3.08 µM | 2.94 µM | 2.78 µM
Cc1ccc2c(c1)C=CC(C#N)N2C(=O)Oc1ccccc1 (configuration not stated) | 42.7 µM | 57.2 µM | 64.7 µM | > 100 µM | 50.6 µM | – | > 100 µM | 73.8 µM | > 100 µM | – | – | – | 50.5 µM | – | – | – | – | – | – | –
